Data set [1] is described as follows: Inhibition of Plasmodium falciparum DHFR A16V/S108T mutant expressed in Escherichia coli BL21 using DHF as substrate by spectrophotometric analysis.
The test system of data set [2] is DHFR (human against Plasmodium falciparum DHFR). Nature of the data set: Selectivity index, ratio of Ki for human DHFR expressed in Escherichia coli BL21 to Ki for Plasmodium falciparum DHFR expressed in Escherichia coli BL21. Format: toxicity. As to conditions: read-out: Ratio Ki.
Data set [3] deals with DHFR (human against Plasmodium falciparum DHFR N51I/C59R/S108N/I164L mutant). The data set is described as follows: Selectivity index, ratio of Ki for human DHFR expressed in Escherichia coli BL21 to Ki for Plasmodium falciparum DHFR N51I/C59R/S108N/I164L mutant expressed in Escherichia coli BL21. Format: toxicity. Conditions: read-out: Ratio Ki.
Data set [4] relates to Plasmodium falciparum. Nature of the data set: Antimalarial activity against Plasmodium falciparum TM4/8.2 infected in human erythrocytes assessed as reduction in [3H]-hypoxanthine incorporation pretreated for 20 hrs followed by [3H]-hypoxanthine addition measured after 20 hrs by radioactivity method. Format: functional, organism-based.
Data set [5] in a line: Therapeutic index, ratio of IC50 for African green monkey Vero cells to IC50 for Plasmodium falciparum TM4/8.2. The class given is toxicity. Conditions: against Plasmodium falciparum TM4/8.2, read-out: Ratio IC50.
Data set [6] has as its system DHFR (human against Plasmodium falciparum DHFR double mutant). Nature of the data set: Selectivity index, ratio of Ki for human DHFR expressed in Escherichia coli BL21 to Ki for Plasmodium falciparum DHFR double mutant expressed in Escherichia coli BL21. The class given is toxicity. Conditions: read-out: Ratio Ki.
Data set [7] in a line: Inhibition of Plasmodium falciparum DHFR C59R/S108N/I164L mutant expressed in Escherichia coli BL21 using DHF as substrate by spectrophotometric analysis.
In data set [8] the test system is Vero. The data set is described as follows: Cytotoxicity against African green monkey Vero cells assessed as reduction in cell viability incubated for 72 hrs by SRB assay. As to conditions: Chlorocebus sabaeus. The class given is cell-based.
The test system of data set [9] is Plasmodium falciparum. Nature of the data set: Antimalarial activity against Plasmodium falciparum CsI-2 harboring DHFR C59R/S108N/I164L mutant infected in human erythrocytes assessed as reduction in [3H]-hypoxanthine incorporation pretreated for 20 hrs followed by [3H]-hypoxanthine addition measured after 20 hrs by radioactivity method. Format: functional, organism-based. Conditions: CsI-2, Erythrocyte.

Data set [10] relates to Plasmodium falciparum. Nature of the data set: Antimalarial activity against Plasmodium falciparum V1/S harboring DHFR N51I/C59R/S108N/I164L mutant infected in human erythrocytes assessed as reduction in [3H]-hypoxanthine incorporation pretreated for 20 hrs followed by [3H]-hypoxanthine addition measured after 20 hrs by radioactivity method. The class given is functional, organism-based. Conditions: Erythrocyte.

A short description of data set [11]: Inhibition of Plasmodium falciparum DHFR expressed in Escherichia coli BL21 using DHF as substrate by spectrophotometric analysis.
Data set [12] relates to Plasmodium falciparum. The data set is described as follows: Antimalarial activity against Plasmodium falciparum W2 harboring DHFR N51I/C59R/S108N mutant infected in human erythrocytes assessed as reduction in [3H]-hypoxanthine incorporation pretreated for 20 hrs followed by [3H]-hypoxanthine addition measured after 20 hrs by radioactivity method. Format: functional, organism-based. As to conditions: W2, Erythrocyte.

The nature of data set [13]: Therapeutic index, ratio of IC50 for African green monkey Vero cells to IC50 for Plasmodium falciparum K1CB1 harboring DHFR […] mutant. Format: toxicity. Conditions: read-out: Ratio IC50.
Data set [14] is described as follows: Therapeutic index, ratio of IC50 for African green monkey Vero cells to IC50 for Plasmodium falciparum V1/S harboring DHFR N51I/C59R/S108N/I164L mutant. The class given is toxicity. Conditions: read-out: Ratio IC50.
Data set [15] relates to Plasmodium falciparum. The data set is described as follows: Antimalarial activity against Plasmodium falciparum K1CB1 harboring DHFR […] mutant infected in human erythrocytes assessed as reduction in [3H]-hypoxanthine incorporation pretreated for 20 hrs followed by [3H]-hypoxanthine addition measured after 20 hrs by radioactivity method. The class given is functional, organism-based. Conditions: K1CB1, Erythrocyte.

Data set [16] in a line: Inhibition of Plasmodium falciparum DHFR N51I/C59R/S108N/I164L mutant expressed in Escherichia coli BL21 using DHF as substrate by spectrophotometric analysis.
Data set [17] can be described thus: Inhibition of Plasmodium falciparum DHFR N51I/C59R/S108N mutant expressed in Escherichia coli BL21 using DHF as substrate by spectrophotometric analysis.
Data set [18] can be described thus: Inhibition of Plasmodium falciparum DHFR […] mutant expressed in Escherichia coli BL21 using DHF as substrate by spectrophotometric analysis.
In data set [19] the test system is Plasmodium falciparum. The data set is described as follows: Antimalarial activity against Plasmodium falciparum T9/94 RC17 harboring DHFR A16V/S108T mutant infected in human erythrocytes assessed as reduction in [3H]-hypoxanthine incorporation pretreated for 20 hrs followed by [3H]-hypoxanthine addition measured after 20 hrs by radioactivity method. Format: functional, organism-based. Conditions: T9/94 RC17, Erythrocyte.

Bounds are passed on as bounds.

On to `CC1N=C(N)N=C(N)N1OCCCOc1ccc(F)cc1Cl` (stereo not drawn), for which the Ki (as a rule, a measure of affinity in units of concentration, obtained from inhibition or displacement) in data set [1] stood at 0.0018 µM; in [7], 0.0016 µM; in data set [11], 0.0004 µM; in data set [16], 0.0013 µM; in data set [17], 0.0008 µM; in [18], 0.0007 µM. Further, the selectivity ratio in data set [2] was 229; in data set [3], 70; in [5], over 2170; in data set [6], 131; in data set [13], over 9620; in data set [14], over 172. The IC50 – broadly, the concentration that gives 50% inhibition – is 0.023 µM in [4]; over 50 µM in data set [8]; 0.047 µM in data set [9]; 0.29 µM in [10]; 0.033 µM in [12]; 0.0052 µM in data set [15].

`CCN(CC)CCCON1C(N)=NC(N)=NC1(C)C`: the inhibitory constant (Ki) in data set [1] was 0.0097 µM; in data set [7] it was 0.0055 µM; in data set [11] it was 0.001 µM; in data set [16], 0.0079 µM; in [17] it was 0.0021 µM; in data set [18], 0.0017 µM. Moreover, the selectivity ratio in data set [2] is 230; in data set [3] it was 29; in data set [5] it was over 2080; in [6], 135; in data set [13] it was over 1560; in data set [14], over 63. Besides, the IC50 is 0.024 µM in [4]; over 50 µM in [8]; 0.14 µM in [9]; 0.8 µM in data set [10]; 0.07 µM in data set [12]; 0.032 µM in data set [15].

Take `CC1(C)NC(N)=NC(=N)N1OCCc1ccccc1`: the Ki worked out at 0.0071 µM in data set [1]; 0.012 µM in data set [7]; 0.0011 µM in data set [11]; 0.017 µM in [16]; 0.0029 µM in [17]; 0.002 µM in data set [18]. Also, the selectivity ratio in data set [2] turned out to be 39; in data set [3] it was 3; in data set [5], 400; in data set [6], 21; in data set [13], 308; in data set [14] it was 17. Further, the IC50 in data set [4] was found to be 0.03 µM; in data set [8], 12 µM; in data set [9], 0.3 µM; in data set [10], 0.72 µM; in data set [12], 0.24 µM; in data set [15], 0.039 µM.

`CN(CCCON1C(N)=NC(N)=NC1(C)C)c1ccc(Cl)c(Cl)c1`: the Ki came to 0.004 µM in [1]; 0.0023 µM in [7]; 0.0013 µM in data set [11]; 0.0039 µM in data set [16]; 0.0015 µM in data set [17]; 0.001 µM in data set [18]. Further, the selectivity ratio in data set [2] turned out to be 30; in data set [3], 10; in [5], 64000; in data set [6] it was 39; in data set [13], 1040; in data set [14], 115. For the same molecule, the IC50 in data set [4] is 0.00052 µM; in data set [8], 33.3 µM; in data set [9] it was 0.14 µM; in data set [10], 0.29 µM; in [12], 0.028 µM; in data set [15], 0.032 µM.

`CC1(C)N=C(N)N=C(N)N1OCCNS(=O)(=O)c1ccc([N+](=O)[O-])cc1`: the Ki in [1] was 0.222 µM; in [7], 0.229 µM; in data set [11], 0.0032 µM; in [16], 0.235 µM; in [17], 0.0179 µM; in data set [18] it was 0.00985 µM. The IC50 in data set [4] came out at 2.2 µM; in data set [9] it was 3.5 µM; in data set [19], 3.5 µM; in data set [10] it was 3.5 µM; in [12], 3.6 µM; in [15] it was 3.1 µM.

As for `NC1=NC(c2ccccc2)N(OCCCOc2ccc(Cl)cc2)C(N)=N1` (stereo not drawn), the Ki in data set [1] was 0.0016 µM; in data set [7], 0.0008 µM; in [11], 0.0004 µM; in [16], 0.0005 µM; in data set [17], 0.0008 µM; in data set [18], 0.0011 µM. For the same molecule, the IC50 in data set [4] stood at 0.012 µM; in [9], 0.72 µM; in data set [19] it was 0.00058 µM; in [10] it was 2.3 µM; in [12], 0.1 µM; in [15], 0.085 µM.

`CC1(C)N=C(N)N=C(N)N1OCC(=O)Nc1ccccc1`: the Ki in data set [1] stood at 0.131 µM; in data set [7], 0.0164 µM; in [11], 0.0037 µM; in data set [16], 0.0178 µM; in [17], 0.0067 µM; in [18], 0.0052 µM. Besides, the IC50 was 1.9 µM in data set [4]; 17.1 µM in data set [9]; 5.2 µM in [19]; 18.1 µM in data set [10]; 13.9 µM in data set [12]; 7.2 µM in [15].

Turning to `NC1=NC(c2ccccc2)N(CCCOc2cc(Cl)c(Cl)cc2Cl)C(N)=N1` (stereo not drawn), the Ki came to 0.0073 µM in data set [1]; 0.0056 µM in [7]; 0.0012 µM in [11]; 0.0057 µM in data set [16]; 0.0026 µM in data set [17]; 0.0021 µM in data set [18]. The IC50 in data set [4] came to 0.75 µM; in data set [9], 3.1 µM; in data set [19] it was 0.018 µM; in [10], 2.6 µM; in data set [12] it was 2.3 µM; in data set [15], 2.9 µM.

`Cc1ccc(S(=O)(=O)NCCON2C(N)=NC(N)=NC2(C)C)cc1`: the Ki in [1] was 0.308 µM; in data set [7], 0.139 µM; in [11], 0.0018 µM; in data set [16], 0.229 µM; in data set [17], 0.0102 µM; in [18], 0.0064 µM. Also, the IC50 amounted to 2 µM in data set [4]; 63.3 µM in data set [9]; 18.7 µM in data set [19]; 62.2 µM in [10]; 21.5 µM in data set [12]; 9.7 µM in data set [15].

Take `CC1(C)N=C(N)N=C(N)N1c1ccc(Cl)cc1` [CYCLOGUANIL]: the inhibition constant (Ki) was 1.31 µM in data set [1]; 0.285 µM in data set [7]; 0.0015 µM in data set [11]; 0.421 µM in [16]; 0.0314 µM in [17]; 0.0432 µM in data set [18]. The IC50 in data set [4] is 0.037 µM; in data set [9], 37.9 µM; in [19] it was 3.7 µM; in data set [10] it was over 100 µM; in [12] it was 6.08 µM; in data set [15] it was 2.4 µM.

With `CC1(C)N=C(N)N=C(N)N1OCCCNS(=O)(=O)c1ccccc1`, the Ki in data set [1] turned out to be 0.061 µM; in [7] it was 0.051 µM; in [11] it was 0.0008 µM; in [16], 0.184 µM; in data set [17], 0.01 µM; in data set [18], 0.0043 µM. Moreover, the IC50 in data set [4] is 0.051 µM; in data set [9] it was 73.4 µM; in data set [19], 2.2 µM; in [10], 61.9 µM; in data set [12], 15.2 µM; in data set [15], 5.4 µM.

Turning to `CC1(C)N=C(N)N=C(N)N1OCC(=O)Nc1ccc(Cl)cc1`, the Ki in [1] turned out to be 0.0568 µM; in data set [7], 0.0088 µM; in [11] it was 0.0023 µM; in [16] it was 0.0097 µM; in data set [17], 0.004 µM; in data set [18] it was 0.0038 µM. The IC50 turned out to be 3 µM in data set [4]; 7.9 µM in [9]; 5 µM in data set [19]; 16.7 µM in data set [10]; 3.7 µM in [12]; 4 µM in data set [15].

Values taken from ChEMBL document CHEMBL4765292, “Flexible diaminodihydrotriazine inhibitors of Plasmodium falciparum dihydrofolate reductase: Binding strengths, modes of binding and their antimalarial activities” (Eur J Med Chem, 2020).
